Results on one molecule are retold here after patent US6723710B2, “Compositions for inhibiting arginase activity” (The Trustees of the University of Pennsylvania, priority 1997, dated 2004).

The target in experiment [1] is T1, rat liver arginase (Rattus norvegicus, UniProt P07824).
T1 sequence (P07824 1-323): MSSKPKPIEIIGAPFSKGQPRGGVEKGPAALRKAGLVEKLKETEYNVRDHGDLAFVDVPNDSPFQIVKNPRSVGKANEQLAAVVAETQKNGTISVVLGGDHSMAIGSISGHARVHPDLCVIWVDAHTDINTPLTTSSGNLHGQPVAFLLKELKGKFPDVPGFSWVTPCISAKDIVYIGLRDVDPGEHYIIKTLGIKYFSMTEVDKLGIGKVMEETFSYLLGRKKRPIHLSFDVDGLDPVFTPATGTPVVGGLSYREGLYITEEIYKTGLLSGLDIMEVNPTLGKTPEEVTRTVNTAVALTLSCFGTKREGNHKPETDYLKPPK
The experiment in a line: [14C-guanidino]-arginine arginase activity assay (Example 2). In kind it is biochemical. Particulars: 100 millimolar CHES, pH 9.0, 1 millimolar arginine; read-out: IC50 for inhibition of arginase. The procedure: Arginase activity was assessed using the ^(14C-guanidino)-arginine assay of Rüegg et al. (1980, Anal. Biochem. 102:206-212), as described (Reczkowski et al., 1994, Arch. Biochem. Biophys. 312:31-37). […] […] et al., 1994, Biochem. Biophys. Res.

Experiment [2] has as its target T2, arginase (Rattus norvegicus, UniProt P07824).
T2 sequence (P07824 1-323): T1 sequence (P07824 1-323)
The experiment in a line: isothermal titration calorimetry. In kind it is binding. On the set-up: made in house. The procedure: All calorimetry experiments were conducted on a MCS isothermal calorimeter from MicroCal, Inc. (Northampton, Mass.). Arginase was exhaustively dialyzed against a solution comprising 100 micromolar MnCl2 and 50 millimolar bicine-NaOH (pH 8.5). […] Prior to the titration experiment, samples were de-gassed under vacuum for 5 minutes. […] The contents of the sample cell were titrated with 30-40 aliquots (2.5 microliters each) of inhibitor (an initial 1 microliters injection was made, but not used in data analysis). After each injection, the heat change was measured and converted to the corresponding enthalpy value. The reaction mixture was continuously stirred at 400 rotations per minute during titration. Control experiments were carried out by titrating the inhibitor into the buffer solution under identical experimental conditions. Data analysis was performed using ORIGIN™ software provided with the instrument. The calorimetric data are presented with the background titrations subtracted from the experimental data. The amount of heat produced per injection was calculated by integration of the area under each peak. The data were fit to the following equation, […]
(In general: In ITC the heat of successive injections is recorded.)

The target in experiment [3] is brain arginase activity. The experiment in a line: arginase activity in brain homogenate. In kind it is biochemical, opossum. An excerpt:
(§1) Tissue samples of the opossum internal anal sphincter muscle (IAS), adjoining rectal tissue, liver, and brain were homogenized using an ULTRATURRAX™ tissue homogenizer (Tekamr, Cincinnati, Ohio) in a solution comprising 10 millimolar Tris-HCl, 150 millimolar KCl, and 25 millimolar MnCl2, at pH 7.4. The homogenates were dialyzed overnight against the same solution. Dialyzed homogenates were centrifuged to remove insoluble material and concentrated with Amicon CENTRICON™ 30 microconcentrators to yield stock protein preparations having protein concentrations of 2.4 milligrams per milliliter for IAS smooth muscle, 3.6 milligrams per milliliter for rectal smooth muscle, 3 milligrams per milliliter for brain, and 17.5 milligrams per milliliter for liver. Protein concentrations were estimated with the Pierce Coomassie Protein Reagent kit using bovine serum albumin as a standard.
(§2) Arginase activity in tissue homogenates was evaluated using the radioactive L-[guanidino^14C]arginine assay of Rüegg and Russell (1980, Anal. Biochem. 102:206-212). Assays were performed using a solution comprising 100 millimolar CHES-NaOH and 0.1 millimolar MnCl2 at pH 9.0. The reactions were initiated by addition of 5 microliters of tissue homogenate to 45 microliters of reaction mixture that contained the CHES buffer, the appropriate concentration of arginine (0.5 to 5 millimolar) and about 5.0×10^4 counts per minute of L-[guanidino-^14C]arginine. IAS, rectal muscle, and brain homogenates were incubated with the assay mixture at room temperature for one hour, and the liver sample was incubated for 5 minutes. […] Urea was separated from non-reacted L-[guanidino-^14C]arginine by treatment with 200 μl of 1:1 v/v slurry of DOWEX™ 50W-X8 in water, and quantitated by adding 200 microliters of the supernatant from the DOWEX™ treatment to 3 milliliters of LIQUISCENT™ (National Diagnostics) for liquid scintillation counting in a Beckman LS 5000CE counter. The data were analyzed using double-reciprocal plots of the initial velocity measurements; standard errors were determined by regression analysis. […]

Experiment [4] deals with T1, rat liver arginase. As to the kind of experiment: continuous chromogenic arginase assay with substrate 1-nitro-3-guanidinobenzene (compound 18). On the set-up: made in house. Conditions: 2 millimolar compound 18 as substrate; pseudo-turnover number, smaller = better inhibition. In kind it is biochemical. The procedure:
The activity of wild-type arginase was monitored spectrophotometrically using a Pharmacia BIOTECH ULTROSPEC™ 2000. Assays were performed in a solution comprising 100 micromolar MnCl2 and 50 millimolar bicine-NaOH (pH 9.0). […] Eadie-Hofstee plots were used to analyze the data.

Experiment [5] has as its target IAS arginase activity. The experiment in a line: arginase activity in IAS homogenate. In kind it is biochemical, opossum.
From the text: as §1, §2

Experiment [6] addresses T2, arginase. As to the kind of experiment: dialysis/dilution reversibility experiments with pre-incubated arginase-inhibitor complex. In kind it is biochemical. On the set-up: made in house. The procedure: Dialysis experiments of arginase with the arginase-compound 7 and arginase-compound 15 complexes were performed in following way. Thirty microliters of arginase at a concentration of 11.2 milligrams per milliliter were pre-incubated for thirty minutes with an appropriate concentration of compound 7 (5 microliters of 100 micromolar stock solution). […] Pre-incubates were then added to bicine buffer containing 4 millimolar compound 18. The final volume of the assay reaction solution was 1 milliliter.

As usually defined, the IC50 is the concentration that inhibits the measured activity by half. As a reminder, the Ki is the equilibrium dissociation constant of an inhibitor or competing ligand from its target. In the case of `N[C@@H](CCCCB(O)O)C(=O)O` [compound 7, 2(S)-amino-6-boronohexanoic acid], the IC50 in experiment [1] is 800 nM; in experiment [5] (IAS, read-out: IC50 for inhibition of arginase activity, IAS homogenate) it was 100 nM. Besides, in experiment [2] (100 micromolar MnCl2, 50 millimolar bicine pH 8.5, 25° C., read-out: Kd determined by titration calorimetry), the Kd was 110 nM. Besides, the “association constant (Ka)” value in experiment [2] (pH 8.5, 25° C.) is 8.89×10^6 inverse molar. Further, the “enthalpy change (ΔH) of binding” value in experiment [2] (pH 8.5, 25° C.) is on record as −12.97 kilocalories per mole. Further, the “stoichiometry (n), moles bound per mole of arginase monomer” value in experiment [2] (pH 8.5, 25° C.) is listed as 1.07. Moreover, the Ki is 18 nM in experiment [3] (arginine fixed at Km, assuming competitive inhibition, read-out: estimated Ki, brain arginase activity) and 50 nM in experiment [5] (arginine fixed at Km, assuming competitive inhibition, read-out: estimated Ki, IAS arginase activity). For the same molecule, the “times more potent than L-HO-Arg, brain” value in experiment [3] (brain homogenate) came out at 800 times. Besides, the “tnpseudo (moles of inhibitor/mole of arginase)” value in experiment [4] is on record as 0.7 ± 0.1 moles of inhibitor/mole of arginase. Moreover, the “inhibited velocity, control without pre-incubation” value in experiment [6] (9.6 micromolar arginase, 0.5 micromolar ABHA) is on record as 0.47 micromolar per minute. Besides, the reversibility of inhibition entry is “reversible inhibitor” in experiment [6] (30 minutes pre-incubation) and “completely instantaneous reversible inhibition” in experiment [6] (30 minutes pre-incubation, listed as ABHA). Besides, the “observed inhibited velocity, diluted pre-incubate” value in experiment [6] (30 minutes pre-incubation, diluted to 0.5 micromolar ABHA and 9.6 micromolar arginase) turned out to be 0.46 micromolar per minute.
